One test deals with Colon26 tumor cells. Kind of test: Colon26 tumor growth, combination with cyclophosphamide (Example 8). It counts as in vivo, Balb/c mice. The settings on record: anti-SEMA4D 50 mg/kg IP weekly; cyclophosphamide 50 mg/kg IP days 12 and 20; endpoint 1000 mm3.
The subject of the next test is Colon26. Kind of test: Summary of tumor regressions in Colon26 model (Example 13, FIG. 13). It counts as in vivo, mice. As to conditions: summary of experiments (FIG. 13). An excerpt:
Experimental Design. […] The experiment design of the respective experiments is summarized in the above Examples.

Procedure for Colon26 tumor cells: Experimental Design. 5×10^5 Colon26 tumor cells were implanted subcutaneously into the flank of female Balb/c mice. […] There were 20 mice per group. Tumors were measured with calipers 3×/week starting 5 days post implant. Animals were sacrificed when tumor volume reached 1000 mm3.
Tumor growth was measured by calipers and measurements were used to calculate tumor volume using the formula (w^2×l)/2, where w=width, smaller measurement, and l=length, in mm, of the tumor.
Regression is the lack of palpable tumor, defined by a tumor measuring <50 mm3 for at least two consecutive measurements.

Regarding `O=P1(N(CCCl)CCCl)NCCCO1` (centres unmarked) [cyclophosphamide], the “Tumor Growth Delay (TGD)” value with Colon26 tumor cells turned out to be 96%. In addition, the tumor regression in the test on Colon26 is recorded as 10%.

These data come from US12070500B2, “Use of semaphorin-4D antibodies in combination with an immune modulating therapy to inhibit tumor growth and metastasis” (Vaccinex, Inc., priority 2013, dated 2024).
